Assays:
Assay type in all cases: in vivo, mouse (D2.B10-Dmd^mdx/J)
D2.B10 mice [1] = assay: Grip strength test (FNmax) in D2.B10 mice; details: for FNmax from day 62 onwards: Givinostat 5, 10 and 37.5 mg/kg, vs vehicle; for FNmax from day 62 onwards / FNmax from day 21 until days 49-62: prednisone 1 mg/kg i.p. weekly; for FNmax from day 21 until days 49-62: Givinostat 10 and 37.5 mg/kg
Excerpt: For the efficacy studies, C57BL/10 J (Stock No: 000665) wild type (wt) and C57BL/10ScSn-Dmd^mdx/J (Stock No: 001801) 7–8-week-old male mice, DBA/2J wt (Stock No: 000671), and D2.B10-Dmd^mdx/J (Stock No: 013141) 6–7-week-old male mice were purchased from The Jackson Laboratories (Bar Harbor, Maine, USA). After 5 days of acclimatization in the animal facility, mice were randomized into different treatment groups based on their BW. C57BL/10J wt mice were assigned to the naive wt group (healthy mice that received no treatment, but were subjected to functional tests), whereas mdx mice were assigned to the following groups (9 mice/group; 4–5 mice/cage): naive mdx (mice that received no treatment, but were subjected to functional tests), vehicle (0.5% methylcellulose, p.o.), and Givinostat (0.1, 0.3, 1, 5, 10, 25, and 37.5 mg/kg, p.o.). DBA/2J mice were assigned to the naive wt group (healthy mice that received no treatment, but were subjected to functional tests), whereas D2.B10 mice were assigned to the following groups (12–13 mice/group; 4–5 mice/gage): vehicle (filtered tap water, p.o.), Givinostat (1, 5, 10, and 37.5 mg/kg, p.o.), prednisone 1 mg/kg, and Deflazacort 1 mg/kg (i.p.).
In the efficacy studies, Givinostat powder (ITF2357) was suspended in 0.5% methylcellulose (Sigma-Aldrich) and administered p.o. (by gavage) at the doses of 0.1, 0.3, 1, 5, 10, 25, and 37.5 mg/kg qdx5x15weeks (administration volume per mouse: 10 mL/kg) in mdx mice (see Additional Figure 1A). Vehicle-treated mdx mice received 0.5% methylcellulose suspension. Givinostat suspension was stored at + 4 °C, and it was freshly prepared every 7 days. Probably due to the impairment of their tongue and masticatory muscles, the oral gavage procedure turned out to be difficult to perform, and chronic treatment of D2.B10 mice by this route was considered to bear a high risk of damaging the esophagus. For this reason, Givinostat was administered in the drinking water. Givinostat was dissolved in filtered tap water and was administered in drinking water (throughout 24 h) for 105 days at the dose of 1, 5, 10, and 37.5 mg/kg/day, according to a daily estimate of water consumption of 4 ml/mouse/day. Water consumption was weekly monitored throughout the entire duration of the study weighing the bottle of each cage (maximum 4 mice per cage). Prednisone and Deflazacort powder (Sigma-Aldrich) was dissolved in 2% DMSO (Sigma-Aldrich) and diluted in sterile saline on injection days. Both drugs were administered weekly (for 15 weeks) by i.p. injection at the dose of 1 mg/kg in a volume of 10 mL/kg. Givinostat and steroid treatments started on days 7 and 9 of the experimental plan, respectively (see Additional Figure 1B). All mice were monitored daily and tolerability was evaluated on the basis of BW and clinical signs.
In both efficacy studies, the effectiveness of treatments was evaluated every week by measuring the forelimb strength by a grip strength meter (Ugo Basile SRL, Italy). BW of mdx (see Additional Figure 2) and D2.B10 mice (see Additional Figure 3) was also measured in order to normalize the absolute grip strength of each mouse with respect to its BW. The protocol provides 5 measurements for each mouse (the procedure was compliant with the standard operating procedures of TREAT–NMD Neuromuscular Network). The highest recorded value of maximal normalized strength (FNmax) obtained for each mouse at all the time points (from T0 to T15) was used for further analysis.
After taking baseline readings for behavioral assays (FNmax and distance run by the animals), mice were re-randomized based on these two parameters, also considering the previous randomization performed on their BW.
The grip strength and run to exhaustion tests were performed during the light-cycle phase, in the early hours of the morning (8:00–11:30 am). […]

D2.B10 mice [2] = assay: Centralized nuclei (%) in muscles of D2.B10 mice; details: Givinostat 37.5 mg/kg; for Nuclear centralization in TA: prednisone (vehicle 21.2 ± 1.0); for Nuclear centralization in GAS: prednisone (vehicle 25.1 ± 1.5)
Excerpt: (§1) Tibialis anterior (TA), gastrocnemius (GAS), DIA, and heart were collected from mice maintained under isoflurane anesthesia and sacrificed by cervical dislocation. These muscles were collected from C57BL/10J wt and mdx (5 mice/group) at the end of treatments and from DBA/2J wt and D2.B10 mice (5 mice/group) at two different time points to be examined by a pathologist (for more details see Additional Table 1). Due to the results obtained by the functional tests, muscles from only some treatment groups were analyzed in both DMD models (see Additional Table 1). All the collected muscles were fixed in 10% buffered formalin solution (Bio-optica, Milan, Italy) at + 4 °C for at least 48 h. After fixation, muscular samples were transversely trimmed, caged, and paraffin embedded overnight with an Automated Vacuum Tissue Processor Floor (ETP, Histo-Line Laboratories) and included in paraffin blocks. Serial transverse cross-sections (4 μm thick) were cut with a microtome (Leica RM 2255), collected onto uncoated glass slides, and stained using a standard protocol for hematoxylin and eosin (Mayer hematoxylin & Aqueous G Eosin 1%, Bio-Optica) and Sirius Red staining (Direct Red 80, Sigma-Aldrich). For the image analysis and quantitation, hematoxylin and eosin- and Sirius Red-stained slides were examined with an Olympus BX51 light microscope. From each sample, 1 to 3 random microphotographs at the magnification of × 4 and × 10 (TA, GAS and heart) or × 20 (DIA) were collected using Image-Pro Plus system. The digital images were processed by a pathologist using ImageJ software (U.S. National Institutes of Health, Bethesda, MD, USA). To quantify CSA and centralized nuclei (%) on hematoxylin and eosin-stained sections, one hundred myofibers were manually measured for each muscle/mouse using a tablet pen (Wacom Intruos) and analyzed by the ImageJ software after a linear calibration of 150 μm. The fibrotic area, corresponding to the area stained in red, was compared to the total area of the tissue section, and the results were expressed as percentage fibrosis. The % of fibrosis of muscles in the different treatment groups was expressed by averaging the three values obtained from each muscle.

D2.B10 mice [3] = assay: Muscle fibrosis by Sirius Red staining in D2.B10 mice; details: for Reduction of fibrosis in DIA: T8; for Reduction of fibrosis in TA: T8, Givinostat 37.5 mg/kg, steroids 1 mg/kg, vs vehicle; for Effect on fibrosis in GAS: T16; for Efficacy on fibrosis in DIA: T16, Givinostat 37.5 mg/kg, prednisone
Excerpt: as §1

SMILES: C[C@]12C=CC(=O)C=C1CC[C@@H]1[C@@H]2C(=O)C[C@@]2(C)[C@H]1CC[C@]2(O)C(=O)CO [prednisone]
- Effect of steroid on FNmax in comparison (D2.B10 mice [1]; 1 mg/kg i.p. weekly, all the treatment period): comparable to that of Givinostat 5 e 10 mg/kg
- FNmax from day 62 onwards (D2.B10 mice [1]): remained significantly elevated until day 104
- FNmax from day 21 until days 49-62 (D2.B10 mice [1]): increased the FNmax of D2.B10-treated mice to that of wt healthy mice
- Nuclear centralization in TA (D2.B10 mice [2]): 22.0 ± 2.4%
- Nuclear centralization in GAS (D2.B10 mice [2]): 21.6 ± 1.7%
- Effect of steroid on fibrosis, summary (D2.B10 mice [3]; 1 mg/kg i.p. weekly): significantly reduced fibrosis in TA, GAS, and DIA
- Reduction of fibrosis in DIA (D2.B10 mice [3]): ~45%
- Reduction of fibrosis in TA (D2.B10 mice [3]): about 22%
- Reduction of fibrosis in GAS (D2.B10 mice [3]; T8, vs vehicle): about 26%
- Effect on fibrosis in GAS (D2.B10 mice [3]): No significant effect
- Efficacy on fibrosis in DIA (D2.B10 mice [3]): lost

SMILES: CCN(CC)Cc1ccc2cc(COC(=O)Nc3ccc(C(=O)NO)cc3)ccc2c1 [Givinostat]
- Lowest dose with significant effect on FNmax from day 21 to day 104 (D2.B10 mice [1]): 10 mg/kg
- Effect on FNmax (D2.B10 mice [1]; 1-37.5 mg/kg/day in drinking water): dose-dependent
- Time interval of significant FNmax improvement (D2.B10 mice [1]; Deflazacort 1 mg/kg i.p. weekly, Givinostat 1 mg/kg): from day 42 to days 90/104
- FNmax from day 62 onwards (D2.B10 mice [1]): remained significantly elevated until day 104
- FNmax from day 21 until days 49-62 (D2.B10 mice [1]): increased the FNmax of D2.B10-treated mice to that of wt healthy mice
- Difference in FNmax, Givinostat 37.5 mg/kg vs Deflazacort (D2.B10 mice [1]; days 90 and 97, p < 0.05 and p < 0.01): a significant difference was also seen
- Dose of maximal efficacy on FNmax (D2.B10 mice [1]; drinking water): 37.5 mg/kg
- Significant differences in FNmax, Givinostat 37.5 mg/kg versus prednisone (D2.B10 mice [1]; p < 0.05): observed only at days 90 and 97
- Nuclear centralization in TA (D2.B10 mice [2]): 19.8 ± 2.4%
- Nuclear centralization in GAS (D2.B10 mice [2]): 22.4 ± 2.1%
- Reduction of fibrosis in DIA (D2.B10 mice [3]): about 33%
- Reduction of fibrosis in TA (D2.B10 mice [3]): about 22%
- Effect on fibrosis in GAS (D2.B10 mice [3]): No significant effect
- Efficacy on fibrosis in DIA (D2.B10 mice [3]): lost

— article PMC8296708, “The pan HDAC inhibitor Givinostat improves muscle function and histological parameters in two Duchenne muscular dystrophy murine models expressing different haplotypes of the LTBP4 gene” (Skeletal Muscle, 2021)
